Literature values, collected in patent US10881127B1, “Manufacturing method of water-solubilized solution of mastic resin” (VENN SKINCARE, INC., priority 2019, dated 2021).

Conditions: in room temperature or in water

SMILES: O=C1O[C@H]([C@@H](O)CO)C(O)=C1O [L-ascorbic acid]
- stability of L-ascorbic acid: easily oxidized and broken
